This note sets out measurements from patent publication US6831079B1, “Vasopressin agonist formulation and process” (American Cyanamid Company, priority 1999, dated 2004).

One series has as its target Vasopressin V2 (Rattus norvegicus, UniProt Q00788). The series can be described thus: Vasopressin V2 agonist effects in normal conscious homozygous Brattleboro rats with central diabetes insipidus. In kind it is in vivo. Also on record: from tissue; host or cells: whole living homozygous Brattleboro rat; the receptor is the animal's own. The conditions noted are these: Brattleboro (BB) rats, 10 mg/kg oral; for Osmolality (% Increase): change in osmolality as percent of control; for Urine Volume (% decrease): vs. control, urine collected six hours. The text has this: Vasopressin V2 Agonist Effects of Test Compounds in Normal Conscious Homozygous Brattleboro Rats with Central Diabetes Insipidus
Male or female homozygous Brattleboro rats (Harlan Sprague Dawley, Inc., Indianapolis, Ind.) of 250-350 g body weight were supplied with standard rodent diet (Purina Rodent Lab. Chow 5001) and water ad libitum. On the day of test, rats were placed individually into metabolic cages equipped with devices to separate the feces from the urine and containers for collection of urine. Test compound or reference agent was given at an oral dose of 1 to 10 mg/kg in a volume of 10 ml/kg. The vehicle used was 20% dimethylsulfoxide (DMSO) in 2.5% preboiled corn starch. During the test, rats were provided with water ad libitum. Urine was collected for six hours after dosing of the test compound. At the end of six hours, urine volume was measured. Urinary osmolality was determined using a Fiske One-Ten Osmometer (Fiske Associates, Norwood, Mass., 02062) or an Advanced CRYOMATIC Osmometer, Model 3C2 (Advanced Instruments, Norwood, Mass.). Determinations of Na^+, K^+ and Cl^− ion were carried out using ion specific electrodes in a Beckman SYNCHRON EL-ISE Electrolyte System analyzer. This animal model was mainly used for evaluation of potency and duration of action of the active compounds.

Chain of Vasopressin V2 (Q00788 whole entry): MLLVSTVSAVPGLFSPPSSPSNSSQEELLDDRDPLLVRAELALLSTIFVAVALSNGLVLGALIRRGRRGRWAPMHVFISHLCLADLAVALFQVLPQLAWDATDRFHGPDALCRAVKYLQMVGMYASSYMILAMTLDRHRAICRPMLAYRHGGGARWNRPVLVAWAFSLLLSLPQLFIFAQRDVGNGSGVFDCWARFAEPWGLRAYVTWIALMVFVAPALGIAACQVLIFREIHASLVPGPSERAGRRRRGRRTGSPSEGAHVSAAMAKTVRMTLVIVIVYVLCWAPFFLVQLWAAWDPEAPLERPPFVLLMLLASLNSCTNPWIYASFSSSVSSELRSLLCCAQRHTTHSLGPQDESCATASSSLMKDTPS

In general, melting point refers to the temperature of the solid-liquid transition. As for `Cc1ccccc1C(=O)n1ccc(-c2ccc(C(=O)N3Cc4cccn4Cc4ccccc43)cc2)n1` [Example 36, {4-[1-(2-Methyl-benzoyl)-1H-pyrazol-3-yl]-phenyl}-(5H,11H-pyrrolo[2,1-c][1,4]benzodiazepin-10-yl)-methanone], the melting point lay within 170 to 173 °C. Further, at Vasopressin V2, the “Osmolality (% Increase)” value is recorded as 164% and the “Urine Volume (% decrease)” value was found to be 66%.
Turning to `O=C(c1ccc(-c2ccn(C(=O)c3cccs3)n2)cc1)N1Cc2cccn2Cc2ccccc21` [Example 34, (5H,11-Pyrrolo[2,1-c][1,4]benzodiazepin-10-yl)-{4-[1-(thiophene-2-carbonyl)-1H-pyrazoly-3-yl]phenyl}-methanone], at Vasopressin V2, the “Osmolality (% Increase)” value worked out at 407% and the “Urine Volume (% decrease)” value turned out to be 76%.
Regarding `CC(=O)n1ccc(-c2ccc(C(=O)N3Cc4cccn4Cc4ccccc43)cc2)n1` [Example 30, 1-{3-[4-(5H,11H-Pyrrolo[2,1-c][1,4]benzodiazepine-10-carbonyl)-phenyl]-pyrazol-1-yl}-ethanone], at Vasopressin V2, the “Osmolality (% Increase)” value is on record as 334% and the “Urine Volume (% decrease)” value was determined as 81%.
The compound `O=C(c1ccc(-c2ccn(C(=O)c3ccc(Cl)cc3Cl)n2)cc1)N1Cc2cccn2Cc2ccccc21` [Example 38, {4-[1-(2,4-Dichloro-benzoyl)-1H-pyrazol-3-yl]-phenyl}-(5H,11H-pyrrolo[2,1-c][1,4]benzodiazepin-10-yl)-methanone] gave a melting point of 180 to 182 °C. At Vasopressin V2, the “Osmolality (% Increase)” value was found to be 256% and the “Urine Volume (% decrease)” value came to 66%.
The compound `Cn1ncnc1-c1ccc(C(=O)N2Cc3cccn3Cc3ccccc32)cc1` [Example 49, [4-(2-Methyl-2H-[1,2,4]triazol-3-yl)-phenyl]-(5H,11H-pyrrolo[2,1-c][1,4]-benzodiazepin-10-yl)-methanone] had a melting point of 155 to 158 °C. In addition, on Vasopressin V2, the “Osmolality (% Increase)” value is given as 221% and the “Urine Volume (% decrease)” value stood at 74%.
